Experimental data published in PubChem BioAssay AID328 (DTP/NCI, 2004).
“And” between values parts separate entries of the source, which are not always exact repeats. Identical values can stand only once. Inconclusive results and toxic doses are left out. The calls were made as follows: active = survival T/C of 150% or more; inactive = T/C below 125% in these data.

Test system: BDF1 mice, P388 leukemia ip, median survival T/C
Test: NCI In Vivo Anticancer Drug Screen. Data for tumor model P388 Leukemia (intraperitoneal) in B6D2F1 (BDF1) mice
Settings: endpoint: median survival time, higher = longer survival
In short: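 Vehicle-dosed animals serve as the reference; survival of compound-dosed, tumour-implanted mice is divided by it.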

[1] = dose: 100.0 mg/kg/injection, schedule: Q01DX009 (ip), vehicle: Klucel (hydroxypropylcellulose) (HPC)
[2] = dose: 100.0 mg/kg/injection, schedule: Q04DX003 (ip), vehicle: Klucel (hydroxypropylcellulose) (HPC)
[3] = dose: 200.0 mg/kg/injection, schedule: Q01DX009 (ip), vehicle: Klucel (hydroxypropylcellulose) (HPC)
[4] = dose: 200.0 mg/kg/injection, schedule: Q04DX003 (ip), vehicle: Klucel (hydroxypropylcellulose) (HPC)
[5] = dose: 400.0 mg/kg/injection, schedule: Q04DX003 (ip), vehicle: Klucel (hydroxypropylcellulose) (HPC)
[6] = dose: 50.0 mg/kg/injection, schedule: Q01DX009 (ip), vehicle: saline with Tween-80
[7] = dose: 100.0 mg/kg/injection, schedule: Q01DX009 (ip), vehicle: saline with Tween-80
[8] = dose: 200.0 mg/kg/injection, schedule: Q01DX009 (ip), vehicle: saline with Tween-80
[9] = dose: 12.5 mg/kg/injection, schedule: Q01DX009 (ip), vehicle: saline
[10] = dose: 25.0 mg/kg/injection, schedule: Q01DX009 (ip), vehicle: saline
[11] = dose: 100.0 mg/kg/injection, schedule: Q04DX003 (ip), vehicle: saline with Tween-80
[12] = dose: 100.0 mg/kg/injection, schedule: Q01DX001 (ip), vehicle: Klucel (hydroxypropylcellulose) (HPC)
[13] = dose: 200.0 mg/kg/injection, schedule: Q01DX001 (ip), vehicle: Klucel (hydroxypropylcellulose) (HPC)
[14] = dose: 400.0 mg/kg/injection, schedule: Q01DX001 (ip), vehicle: Klucel (hydroxypropylcellulose) (HPC)
[15] = dose: 25.0 mg/kg/injection, schedule: Q01DX009 (ip), vehicle: saline with Tween-80

Measured: T/C

c1cc[c]([Sn]([c]2ccccc2)([c]2ccccc2)[n]2cnc3ccccc32)cc1
inactive: dose: 0.1 mg/kg/injection, schedule: Q01DX009 (ip), vehicle: Klucel (hydroxypropylcellulose) (HPC) 90 % of control | dose: 0.21 mg/kg/injection, schedule: Q01DX009 (ip), vehicle: Klucel (hydroxypropylcellulose) (HPC) 90 % of control | dose: 0.43 mg/kg/injection, schedule: Q01DX009 (ip), vehicle: Klucel (hydroxypropylcellulose) (HPC) 90 % of control | dose: 0.87 mg/kg/injection, schedule: Q01DX009 (ip), vehicle: Klucel (hydroxypropylcellulose) (HPC) 90 % of control | dose: 7.0 mg/kg/injection, schedule: Q01DX009 (ip), vehicle: Klucel (hydroxypropylcellulose) (HPC) 115 % of control | dose: 18.0 mg/kg/injection, schedule: Q04DX003 (ip), vehicle: Klucel (hydroxypropylcellulose) (HPC) 100 % of control | dose: 28.0 mg/kg/injection, schedule: Q04DX003 (ip), vehicle: Klucel (hydroxypropylcellulose) (HPC) 86 % of control

O=C(Nc1cc(Cl)ccc1Cl)c1ccccc1Cl
inactive: [1] 100 % of control | [2] 104 % of control | [3] 113 % of control | [4] 104 % of control | [5] 100 % of control

CC(C)N1c2c(nc(N)[nH]c2=O)NCC1CNc1ccc(C(=O)NC(CCC(=O)O)C(=O)O)cc1 (configuration not stated)
inactive: dose: 100.0 mg/kg/injection, schedule: Q01DX009 (ip), vehicle: saline 105 % of control | dose: 150.0 mg/kg/injection, schedule: Q01DX009 (ip), vehicle: saline 90 % of control | dose: 200.0 mg/kg/injection, schedule: Q01DX009 (ip), vehicle: saline 97 % of control | dose: 300.0 mg/kg/injection, schedule: Q01DX009 (ip), vehicle: saline 93 % of control | dose: 400.0 mg/kg/injection, schedule: Q01DX009 (ip), vehicle: saline 110 % of control

O=C1NC(c2cccc3c2OCO3)N=C2Oc3ccccc3C=C12 (configuration not stated)
inactive: [6] 98 % of control | [7] 93 % of control | [8] 93 % of control

CCCCOC1CC2c3ccccc3C1c1cccc[n+]12 (configuration not stated)
inactive: dose: 6.25 mg/kg/injection, schedule: Q01DX009 (ip), vehicle: saline 95 % of control | [9] 109 % of control | dose: 18.75 mg/kg/injection, schedule: Q04DX003 (ip), vehicle: saline 100 % of control | [10] 122 % of control | dose: 37.5 mg/kg/injection, schedule: Q04DX003 (ip), vehicle: saline 95 % of control

CN(C)c1ccc(/C=C/c2ccc3ccccc3n2)cc1
inactive: dose: 25.0 mg/kg/injection, schedule: Q04DX003 (ip), vehicle: saline with Tween-80 86 % of control | dose: 50.0 mg/kg/injection, schedule: Q04DX003 (ip), vehicle: saline with Tween-80 86 % of control | [11] 86 % of control

COc1cc(/C=C/c2ccc3ccccc3n2)cc(OC)c1OC
inactive: [11] 100 % of control

CCOc1ccc2[nH]c(=S)sc2c1
inactive: [12] 116 % of control | [13] 91 % of control | [14] 95 % of control

C=CCn1c(=O)n(CC=C)c(=O)n(CC=C)c1=O
inactive: dose: 100.0 mg/kg/injection, schedule: Q04DX003 (ip), vehicle: alcohol 100 % of control | dose: 200.0 mg/kg/injection, schedule: Q04DX003 (ip), vehicle: alcohol 104 % of control | dose: 400.0 mg/kg/injection, schedule: Q04DX003 (ip), vehicle: alcohol 109 % of control

Cc1c(NS(=O)(=O)c2ccccc2)c(C)c(NS(=O)(=O)c2ccccc2)c(C)c1NS(=O)(=O)c1ccccc1
inactive: [6] 88 % of control | [7] 91 % of control | [8] 88 % of control

O=C1N=C(Oc2ccccc2)SC1=O
inactive: [15] 103 % of control and 104 % of control | dose: 50.0 mg/kg/injection, schedule: Q01DX009 (ip), vehicle: saline + alcohol 113 % of control | [6] 95 % of control and 108 % of control | dose: 100.0 mg/kg/injection, schedule: Q01DX009 (ip), vehicle: saline + alcohol 120 % of control | [7] 117 % of control and 123 % of control | dose: 200.0 mg/kg/injection, schedule: Q01DX009 (ip), vehicle: saline + alcohol 113 % of control | [8] 117 % of control and 121 % of control

CC1(C)O[C@]2(C)CC[C@@H]1C[C@H]2O
inactive: dose: 50.0 mg/kg/injection, schedule: Q01DX005 (ip), vehicle: saline with Tween-80 100 % of control | dose: 100.0 mg/kg/injection, schedule: Q01DX005 (ip), vehicle: saline with Tween-80 98 % of control | dose: 200.0 mg/kg/injection, schedule: Q01DX005 (ip), vehicle: saline with Tween-80 95 % of control

COC(=O)c1ccc(C(=O)O)[n+]([O-])c1
inactive: dose: 25.0 mg/kg/injection, schedule: Q01DX009 (ip), vehicle: Klucel (hydroxypropylcellulose) (HPC) 96 % of control | dose: 25.0 mg/kg/injection, schedule: Q04DX003 (ip), vehicle: Klucel (hydroxypropylcellulose) (HPC) 100 % of control | dose: 50.0 mg/kg/injection, schedule: Q04DX003 (ip), vehicle: Klucel (hydroxypropylcellulose) (HPC) 104 % of control | [1] 88 % of control | [2] 113 % of control | [3] 89 % of control | [4] 95 % of control | [5] 87 % of control

NS(=O)(=O)O
inactive: [9] 91 % of control | [10] 87 % of control

CC1=CC(=O)NC1O (configuration not stated)
inactive: dose: 2.5 mg/kg/injection, schedule: Q01DX010 (ip), vehicle: saline 87 % of control | dose: 10.0 mg/kg/injection, schedule: Q01DX010 (ip), vehicle: saline 91 % of control | dose: 15.0 mg/kg/injection, schedule: Q01DX010 (ip), vehicle: saline 100 % of control

CC(=NCc1ccccc1)C(C)(O)c1ccccc1 (configuration not stated)
inactive: [12] 100 % of control | dose: 100.0 mg/kg/injection, schedule: Q01DX001 (ip), vehicle: saline 109 % of control | [1] 110 % of control | [13] 104 % of control | dose: 200.0 mg/kg/injection, schedule: Q01DX001 (ip), vehicle: saline 100 % of control | [3] 100 % of control | [14] 100 % of control | dose: 400.0 mg/kg/injection, schedule: Q01DX001 (ip), vehicle: saline 118 % of control | dose: 400.0 mg/kg/injection, schedule: Q01DX009 (ip), vehicle: Klucel (hydroxypropylcellulose) (HPC) 105 % of control

O=c1[nH]cnc2c(C3OC(CO)C(O)C3O)[nH]nc12 (configuration not stated)
inactive: dose: 10.0 mg/kg/injection, schedule: Q01DX009 (ip), vehicle: saline 91 % of control | dose: 20.0 mg/kg/injection, schedule: Q01DX009 (ip), vehicle: saline 100 % of control | dose: 40.0 mg/kg/injection, schedule: Q01DX009 (ip), vehicle: saline 91 % of control

c1cc[c]([Pb]([c]2ccccc2)[c]2ccccc2)cc1.c1cc[c]([Pb]([c]2ccccc2)[c]2ccccc2)cc1
inactive: dose: 3.13 mg/kg/injection, schedule: Q01DX009 (ip), vehicle: saline with Tween-80 109 % of control | dose: 6.25 mg/kg/injection, schedule: Q01DX009 (ip), vehicle: saline with Tween-80 104 % of control | dose: 12.5 mg/kg/injection, schedule: Q01DX009 (ip), vehicle: saline with Tween-80 101 % of control | [15] 104 % of control
